Test results taken from PubChem BioAssay (NCI).
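GI50: concentration for 50% inhibition of growth. The concentration for full growth arrest is given as TGI.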

Assays:
Test in all cases: NCI tumour cell line growth inhibition, 384-well format; in the data active = GI50 below about 0.43 µM; inactive = the rest
[1] = tested on: KM12 colon
[2] = tested on: MALME-3M melanoma
[3] = tested on: UACC-257 melanoma
[4] = tested on: T-47D breast
[5] = tested on: HOP-62 NSCLC
[6] = tested on: HL-60(TB) leukemia
[7] = tested on: OVCAR-3 ovarian
[8] = tested on: COLO 205 colon
[9] = tested on: UO-31 renal
[10] = tested on: MOLT-4 leukemia
[11] = tested on: SK-OV-3 ovarian
[12] = tested on: LOX IMVI melanoma
[13] = tested on: A498 renal
[14] = tested on: CCRF-CEM leukemia
[15] = tested on: HCT-15 colon
[16] = tested on: ACHN renal
[17] = tested on: SW-620 colon
[18] = tested on: PC-3 prostate
[19] = tested on: HS 578T breast
[20] = tested on: DU-145 prostate
[21] = tested on: SF-539 CNS
[22] = tested on: RXF 393 renal
[23] = tested on: OVCAR-5 ovarian
[24] = tested on: SF-268 CNS
[25] = tested on: IGROV1 ovarian
[26] = tested on: SNB-19 CNS
[27] = tested on: MDA-MB-435 melanoma
[28] = tested on: NCI/ADR-RES ovarian
[29] = tested on: A549 NSCLC
[30] = tested on: NCI-H322M lung
[31] = tested on: MDA-MB-468 breast
[32] = tested on: SF-295 CNS
[33] = tested on: NCI-H23 lung
[34] = tested on: SNB-75 CNS
[35] = tested on: NCI-H226 lung
[36] = tested on: CAKI-1 renal
[37] = tested on: MCF7 breast
[38] = tested on: SK-MEL-28 melanoma
[39] = tested on: HCC-2998 colon
[40] = tested on: NCI-H460 NSCLC
[41] = tested on: M14 melanoma
[42] = tested on: OVCAR-4 ovarian
[43] = tested on: OVCAR-8 ovarian
[44] = tested on: BT-549 breast
[45] = tested on: U251 glioblastoma
[46] = tested on: EKVX NSCLC
[47] = tested on: HOP-92 NSCLC
[48] = tested on: RPMI-8226 leukemia
[49] = tested on: HCT-116 colon
[50] = tested on: SR leukemia
[51] = tested on: TK-10 renal
[52] = tested on: SK-MEL-5 melanoma
[53] = tested on: UACC-62 melanoma
[54] = tested on: NCI-H522 lung
[55] = tested on: HT29 colon
[56] = tested on: SN12C renal

CC(C)(C)c1cc(NC(=O)Nc2ccc(-c3cn4c(n3)sc3cc(OCCN5CCOCC5)ccc34)cc2)no1
inactive: GI50 [1] 0.559 µM | GI50 [2] 1.89 µM | GI50 [3] 4.09 µM | GI50 [5] 1.27 µM | GI50 [6] > 100 µM | GI50 [7] 3.03 µM | GI50 [8] > 100 µM | GI50 [9] > 100 µM | GI50 [11] 1.67 µM | GI50 [12] 2.38 µM | GI50 [13] 2.11 µM | GI50 [14] 0.459 µM | GI50 [15] 4.54 µM | GI50 [16] 7.13 µM | GI50 [17] > 100 µM | GI50 [18] 1.63 µM | GI50 [19] 0.461 µM | GI50 [20] > 100 µM | GI50 [21] 1.08 µM | GI50 [23] > 100 µM | GI50 [24] 0.584 µM | GI50 [25] 4.98 µM | GI50 [26] 3.37 µM | GI50 [27] > 100 µM | GI50 [28] > 100 µM | GI50 [29] 4.97 µM | GI50 [30] 2.99 µM | GI50 [31] 3.17 µM | GI50 [32] 1.12 µM | GI50 [33] 0.684 µM | GI50 [34] 1.41 µM | GI50 [35] 3.82 µM | GI50 [36] 3.68 µM | GI50 [37] 1.04 µM | GI50 [38] 12.4 µM | GI50 [39] > 100 µM
6.48 µM: TGI [13]
0.45 µM: TGI [4]
0.571 µM: TGI [22]
2.55 µM: TGI [24]
4.7 µM: TGI [34]
8.59 µM: TGI [31]
3.54 µM: TGI [5]
active: GI50 [4] 0.094 µM | GI50 [10] 0.412 µM | GI50 [22] 0.184 µM
3.74 µM: TGI [19]
3.17 µM: TGI [21]
> 100 µM: TGI [1] | TGI [2] | TGI [3] | TGI [6] | TGI [7] | TGI [8] | TGI [9] | TGI [10] | TGI [11] | TGI [12] | TGI [14] | TGI [15] | TGI [16] | TGI [17] | TGI [18] | TGI [20] | TGI [23] | TGI [25] | TGI [26] | TGI [27] | TGI [28] | TGI [29] | TGI [30] | TGI [32] | TGI [33] | TGI [35] | TGI [36] | TGI [37] | TGI [38] | TGI [39]

CCc1cnn2c(NCc3ccc[n+]([O-])c3)cc(N3CCCC[C@H]3CCO)nc12
> 100 µM: TGI [1] | TGI [4] | TGI [11] | TGI [47] | TGI [49] | TGI [29] | TGI [32] | TGI [36] | TGI [37]
< 0.01 µM: TGI [2] | TGI [3] | TGI [5] | TGI [6] | TGI [7] | TGI [8] | TGI [40] | TGI [41] | TGI [10] | TGI [42] | TGI [43] | TGI [12] | TGI [13] | TGI [16] | TGI [18] | TGI [44] | TGI [19] | TGI [20] | TGI [21] | TGI [45] | TGI [22] | TGI [23] | TGI [24] | TGI [25] | TGI [46] | TGI [26] | TGI [27] | TGI [48] | TGI [30] | TGI [50] | TGI [51] | TGI [31] | TGI [52] | TGI [33] | TGI [34] | TGI [53] | TGI [54] | TGI [55] | TGI [35] | TGI [56] | TGI [38] | TGI [39]
0.25 µM: TGI [28]
0.0218 µM: TGI [15]
active: GI50 [1] < 0.01 µM | GI50 [2] < 0.01 µM | GI50 [3] < 0.01 µM | GI50 [4] < 0.01 µM | GI50 [5] < 0.01 µM | GI50 [6] < 0.01 µM | GI50 [7] < 0.01 µM | GI50 [8] < 0.01 µM | GI50 [40] < 0.01 µM | GI50 [41] < 0.01 µM | GI50 [10] < 0.01 µM | GI50 [11] < 0.01 µM | GI50 [42] < 0.01 µM | GI50 [43] < 0.01 µM | GI50 [12] < 0.01 µM | GI50 [13] < 0.01 µM | GI50 [15] < 0.01 µM | GI50 [16] < 0.01 µM | GI50 [18] < 0.01 µM | GI50 [44] < 0.01 µM | GI50 [19] < 0.01 µM | GI50 [20] < 0.01 µM | GI50 [21] < 0.01 µM | GI50 [45] < 0.01 µM | GI50 [22] < 0.01 µM | GI50 [23] < 0.01 µM | GI50 [24] < 0.01 µM | GI50 [25] < 0.01 µM | GI50 [46] < 0.01 µM | GI50 [26] < 0.01 µM | GI50 [27] < 0.01 µM | GI50 [47] < 0.01 µM | GI50 [48] < 0.01 µM | GI50 [49] < 0.01 µM | GI50 [28] 0.0413 µM | GI50 [29] < 0.01 µM | GI50 [30] < 0.01 µM | GI50 [50] < 0.01 µM | GI50 [51] < 0.01 µM | GI50 [31] < 0.01 µM | GI50 [32] < 0.01 µM | GI50 [52] < 0.01 µM | GI50 [33] < 0.01 µM | GI50 [34] < 0.01 µM | GI50 [53] < 0.01 µM | GI50 [54] < 0.01 µM | GI50 [55] < 0.01 µM | GI50 [35] < 0.01 µM | GI50 [36] < 0.01 µM | GI50 [56] < 0.01 µM | GI50 [37] < 0.01 µM | GI50 [38] < 0.01 µM | GI50 [39] < 0.01 µM
